# Measurements reported in patent publication US6737383B1, “Herbicidal oxadiazolidines” (priority 1999, dated 2004).
# Experiments:
# crabgrass = assay: Test B pre/postemergence crabgrass; type: in vivo, Digitaria sanguinalis
# Procedure, shortened: (§1)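 Response is a visual 0-to-10 score relative to untreated plants, where 0 means no effect and 10 means complete control, taken twelve to sixteen days after application. Treatments went onto soil at planting and onto foliage of 1- to 4-leaf plants, using a surfactant-containing non-phytotoxic solvent.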
# purple nutsedge = assay: Test B pre/postemergence purple nutsedge; type: in vivo, Cyperus rotundus
# Procedure, shortened: as §1
# duck salad = assay: Test B flood test duck salad; type: in vivo, Heteranthera limosa
# Procedure, shortened: (§2)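 Read-out is a visual response score from 0 (no effect) to 10 (complete control), assigned by comparison with untreated controls. Treatment was applied at the 2-leaf stage, and plants stayed in the greenhouse for twelve to sixteen days before scoring.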
# velvetleaf = assay: Test B pre/postemergence velvetleaf; type: in vivo, Abutilon theophrasti
# Procedure, shortened: as §1
# soybean = assay: Test B pre/postemergence soybean; type: in vivo, Glycine max
# Procedure, shortened: as §1
# bamyardgrass = assay: Test B flood test barnyardgrass; type: in vivo, Echinochloa crus-galli
# Procedure, shortened: as §2
# corn = assay: Test B pre/postemergence corn; type: in vivo, Zea mays
# Procedure, shortened: as §1
# wheat = assay: Test B pre/postemergence wheat; type: in vivo, Triticum aestivum
# Procedure, shortened: as §1
# sugar beet = assay: Test B pre/postemergence sugar beet; type: in vivo, Beta vulgaris
# Procedure, shortened: as §1
# giant foxtail = assay: Test B pre/postemergence giant foxtail; type: in vivo, Setaria faberii
# Procedure, shortened: as §1
# bedstraw = assay: Test B pre/postemergence bedstraw; type: in vivo, Galium aparine
# Procedure, shortened: as §1
# blackgrass = assay: Test B pre/postemergence blackgrass; type: in vivo, Alopecurus myosuroides
# Procedure, shortened: as §1
# rape = assay: Test B pre/postemergence rape; type: in vivo, Brassica napus
# Procedure, shortened: as §1
# cocklebur = assay: Test B pre/postemergence cocklebur; type: in vivo, Xanthium strumarium
# Procedure, shortened: as §1
# pigweed = assay: Test B pre/postemergence pigweed; type: in vivo, Amaranthus retroflexus
# Procedure, shortened: as §1
# smallflower flatsedge = assay: Test B flood test smallflower flatsedge; type: in vivo, Cyperus difformis
# Procedure, shortened: as §2
# morningglory = assay: Test B pre/postemergence morningglory; type: in vivo, Ipomoea hederacea
# Procedure, shortened: as §1
# wild oat = assay: Test B pre/postemergence wild oat; type: in vivo, Avena fatua
# Procedure, shortened: as §1
# surinam grass = assay: Test B pre/postemergence surinam grass; type: in vivo, Brachiaria decumbens
# Procedure, shortened: as §1
# rice = assay: Test B flood test rice; type: in vivo, Oryza sativa
# Procedure, shortened: as §2
# [1] = Postemergence, Rate 62 g/ha, scale 0 to 10, 0 is no effect, 10 is complete control
# [2] = Postemergence, Rate 125 g/ha, scale of 0 to 10 where 0 is no effect and 10 is complete control
# [3] = Postemergence, Rate 250 g/ha, scale of 0 to 10, 0 is no effect, 10 is complete control
# [4] = Preemergence, Rate 62 g/ha, scale of 0 to 10 where 0 is no effect and 10 is complete control
# [5] = Preemergence, Rate 125 g/ha, scale of 0 to 10 where 0 is no effect and 10 is complete control
# [6] = Preemergence, Rate 250 g/ha, scale 0 to 10 (0 no effect, 10 complete control)
# [7] = Preemergence, Rate 500 g/ha, scale of 0 to 10 where 0 is no effect and 10 is complete control
# [8] = Rate 500 g/ha, Postemergence, scale 0 to 10, 0 is no effect, 10 is complete control
# [9] = Rate 62 g/ha, flood test species, Pre-emergence, visual evaluation after twelve to sixteen days
# [10] = Rate 125 g/ha, under heading Pre-emergence, flood test species, visual evaluation after twelve to sixteen days
# [11] = Rate 250 g/ha, Pre-emergence (flood test species), scale 0 to 10, 0 is no effect, 10 is complete control
# [12] = Rate 500 g/ha, Pre-emergence section of Table B, 0 to 10 scale (0 no effect, 10 complete control)
compound,measurement,setting,value
CC(C)N(C(=O)n1oc(=O)n(CCCC#N)c1=O)c1ccccc1 [Compound 674],"Plant response rating, Crabgrass",crabgrass; [1],6
same,Crabgrass plant response rating,crabgrass; [2],8
same,Crabgrass plant response rating,crabgrass; [3],9
same,Crabgrass plant response rating,crabgrass; [4],8
same,"Plant response rating, Crabgrass",crabgrass; [5],9
same,"Plant response rating, Crabgrass",crabgrass; [6],9
same,"Plant response rating, Crabgrass",crabgrass; [7],9
same,Crabgrass plant response rating,crabgrass; [8],9
same,"Plant response rating, Nutsedge",purple nutsedge; [1],0
same,Nutsedge plant response rating,purple nutsedge; [2],3
same,Nutsedge plant response rating,purple nutsedge; [4],0
same,"Plant response rating, Nutsedge",purple nutsedge; [5],0
same,"Plant response rating, Nutsedge",purple nutsedge; [7],6
same,"Plant response rating, Ducksalad (0 to 10 scale, 0 is no effect, 10 is complete control)",duck salad; [9],0
same,"Ducksalad plant response rating (0 to 10 scale, 0 is no effect, 10 is complete control)",duck salad; [10],0
same,Ducksalad plant response rating,duck salad; [11],0
same,Ducksalad plant response rating,duck salad; [12],0
same,"Plant response rating, Velvetleaf",velvetleaf; [1],4
same,Velvetleaf plant response rating,velvetleaf; [2],6
same,Velvetleaf plant response rating,velvetleaf; [4],6
same,"Plant response rating, Velvetleaf",velvetleaf; [5],7
same,"Plant response rating, Velvetleaf",velvetleaf; [7],10
same,Velvetleaf plant response rating,velvetleaf; [8],8
same,"Plant response rating, Soybean",soybean; [1],2
same,Soybean plant response rating,soybean; [2],3
same,Soybean plant response rating,soybean; [4],3
same,"Plant response rating, Soybean",soybean; [5],3
same,"Plant response rating, Soybean",soybean; [7],7
same,Soybean plant response rating,soybean; [8],7
same,"Plant response rating, Barnyardgrass (0 to 10 scale, 0 is no effect, 10 is complete control)",bamyardgrass; [9],0
same,"Barnyardgrass plant response rating (0 to 10 scale, 0 is no effect, 10 is complete control)",bamyardgrass; [10],0
same,Barnyardgrass plant response rating,bamyardgrass; [11],0
same,Barnyardgrass plant response rating,bamyardgrass; [12],0
same,"Plant response rating, Corn",corn; [1],0
same,Corn plant response rating,corn; [2],3
same,Corn plant response rating,corn; [3],6
same,Corn plant response rating,corn; [4],2
same,"Plant response rating, Corn",corn; [5],3
same,"Plant response rating, Corn",corn; [6],5
same,"Plant response rating, Corn",corn; [7],8
same,Corn plant response rating,corn; [8],7
same,"Plant response rating, Wheat",wheat; [1],0
same,Wheat plant response rating,wheat; [2],0
same,Wheat plant response rating,wheat; [4],0
same,"Plant response rating, Wheat",wheat; [5],5
same,"Plant response rating, Wheat",wheat; [7],8
same,Wheat plant response rating,wheat; [8],7
same,"Plant response rating, Sugarbeets",sugar beet; [1],0
same,Sugarbeets plant response rating,sugar beet; [2],0
same,Sugarbeets plant response rating,sugar beet; [4],2
same,"Plant response rating, Sugarbeets",sugar beet; [5],5
same,"Plant response rating, Sugarbeets",sugar beet; [7],9
same,Sugarbeets plant response rating,sugar beet; [8],5
same,"Plant response rating, Giant foxtail",giant foxtail; [1],7
same,Giant foxtail plant response rating,giant foxtail; [2],9
same,Giant foxtail plant response rating,giant foxtail; [3],9
same,Giant foxtail plant response rating,giant foxtail; [4],6
same,"Plant response rating, Giant foxtail",giant foxtail; [5],9
same,"Plant response rating, Giant foxtail",giant foxtail; [7],10
same,Giant foxtail plant response rating,giant foxtail; [8],9
same,Bedstraw plant response rating,bedstraw; [3],0
same,Bedstraw plant response rating,bedstraw; [4],0
same,"Plant response rating, Bedstraw",bedstraw; [5],0
same,"Plant response rating, Bedstraw",bedstraw; [7],0
same,"Plant response rating, Blackgrass",blackgrass; [1],4
same,Blackgrass plant response rating,blackgrass; [2],7
same,Blackgrass plant response rating,blackgrass; [3],8
same,Blackgrass plant response rating,blackgrass; [4],6
same,"Plant response rating, Blackgrass",blackgrass; [5],8
same,"Plant response rating, Blackgrass",blackgrass; [6],9
same,"Plant response rating, Blackgrass",blackgrass; [7],9
same,Blackgrass plant response rating,blackgrass; [8],9
same,"Plant response rating, Rape",rape; [1],0
same,Rape plant response rating,rape; [2],0
same,Rape plant response rating,rape; [4],0
same,"Plant response rating, Rape",rape; [5],3
same,"Plant response rating, Rape",rape; [7],8
same,Rape plant response rating,rape; [8],5
same,"Plant response rating, Cocklebur",cocklebur; [1],0
same,Cocklebur plant response rating,cocklebur; [2],0
same,Cocklebur plant response rating,cocklebur; [3],2
same,Cocklebur plant response rating,cocklebur; [4],0
same,"Plant response rating, Cocklebur",cocklebur; [5],0
same,"Plant response rating, Cocklebur",cocklebur; [6],0
same,"Plant response rating, Cocklebur",cocklebur; [7],0
same,Cocklebur plant response rating,cocklebur; [8],4
same,"Plant response rating, Redroot pigweed",pigweed; [1],0
same,Redroot pigweed plant response rating,pigweed; [2],3
same,Redroot pigweed plant response rating,pigweed; [4],7
same,"Plant response rating, Redroot pigweed",pigweed; [5],7
same,"Plant response rating, Redroot pigweed",pigweed; [7],10
same,Redroot pigweed plant response rating,pigweed; [8],7
same,"Plant response rating, S. Flatsedge (0 to 10 scale, 0 is no effect, 10 is complete control)",smallflower flatsedge; [9],0
same,"S. Flatsedge plant response rating (0 to 10 scale, 0 is no effect, 10 is complete control)",smallflower flatsedge; [10],0
same,S. Flatsedge plant response rating,smallflower flatsedge; [11],0
same,S. Flatsedge plant response rating,smallflower flatsedge; [12],0
same,"Plant response rating, Morningglory",morningglory; [1],2
same,Morningglory plant response rating,morningglory; [2],2
same,Morningglory plant response rating,morningglory; [3],10
same,Morningglory plant response rating,morningglory; [4],0
same,"Plant response rating, Morningglory",morningglory; [5],0
same,"Plant response rating, Morningglory",morningglory; [7],7
same,"Plant response rating, Wild oats",wild oat; [1],0
same,Wild oats plant response rating,wild oat; [2],0
same,Wild oats plant response rating,wild oat; [4],1
same,"Plant response rating, Wild oats",wild oat; [5],3
same,"Plant response rating, Wild oats",wild oat; [7],10
same,Wild oats plant response rating,wild oat; [8],3
same,"Plant response rating, B. signalgrass",surinam grass; [1],3
same,B. signalgrass plant response rating,surinam grass; [2],5
same,B. signalgrass plant response rating,surinam grass; [3],8
same,B. signalgrass plant response rating,surinam grass; [4],6
same,"Plant response rating, B. signalgrass",surinam grass; [5],7
same,"Plant response rating, B. signalgrass",surinam grass; [6],8
same,"Plant response rating, B. signalgrass",surinam grass; [7],8
same,B. signalgrass plant response rating,surinam grass; [8],8
same,"Plant response rating, Rice (0 to 10 scale, 0 is no effect, 10 is complete control)",rice; [9],0
same,"Rice plant response rating (0 to 10 scale, 0 is no effect, 10 is complete control)",rice; [10],0
same,Rice plant response rating,rice; [11],0
same,Rice plant response rating,rice; [12],0
